Test results: US5440016A, “Peptides of the formula (KFmoc) ZZZ and their uses” (priority 1993, dated 1995)
Square brackets hold non-standard residues; d marks the D form. Peptide text beside a SMILES is read from it.

Tests used:
[1] = tested on: Staphylococcus aureus ATCC 29213; settings: for IC50 (μg/ml) against S. aureus: Tables 22-23; for IC50 against S. aureus: Tables 7-9, lower parts (unnatural amino acids)
[2] = tested on: Human red blood cells (RBCs); experiment: Hemolytic activity; type: cell-based; settings: for % hemolysis at 100 μg/ml: Tables 22-23
[3] = tested on: Escherichia coli ATCC 25922; settings: for IC50 (μg/ml) against E. coli: Tables 22-23; for IC50 against E. coli: Tables 3-5, lower parts (unnatural amino acids)
Experimental: (§1) Escherichia coli ATCC 25922 and P. aeruginosa ATCC 27853 were used as Gram-negative (-) and Staphylococcus aureus ATCC 29213 as Gram-positive (+) bacteria. Bacteria were grown overnight at 37° C. in Mueller-Hinton (MH) broth. This culture was reinoculated and incubated at 37° C. to reach the exponential phase of bacteria growth, i.e., a final bacterial suspension containing 10^5 to 5×10^5 colony-forming units (CFU)/ml. The concentration of cells was established by plating 100 μl of different dilutions of the culture solution (e.g., 10^-2, 10^-3 and 10^-4) onto solid agar plates.
(§2) Following an overnight incubation at 37° C., the CFU thus formed were counted on each agar plate. In 96-well tissue culture plates, as control blanks, eight wells per plate contained only medium, while as a positive growth control, eight other wells contained medium plus cells.
(§3) The plates were incubated overnight at 37° C., and the optical density (OD) determined at 620 nm after different times of incubation.

P. aeruginosa ATCC 27853 = experiment: Antimicrobial assay, P. aeruginosa; settings: Tables 22-23
Experimental: as §1, §2, §3

[4] = tested on: Streptococcus sanguis ATCC 10556; settings: for IC50 (μg/ml) against S. sanguis: Tables 22-23; for IC50 against S. sanguis: Tables 11-13, lower parts (unnatural amino acids)
Experimental: Streptococcus sanguis ATCC 10556 (Gram-positive (+) bacteria present in tooth crevices) was grown overnight at 37° C. in Brain Heart Infusion (BHI) broth. This culture was reinoculated and incubated at 37° C. to reach the exponential phase of bacteria growth, i.e., a final bacterial suspension containing 10^5 to 5×10^5 colony-forming units (CFU)/ml. The concentration of cells was established by plating 100 μl of different dilutions of the culture solution (e.g., 10^-2, 10^-4) and 10^-4) onto solid agar plates. Following an overnight incubation at 37° C., the CFU thus formed were counted on each agar plate. In 96-well tissue culture plates, as control blanks, eight wells per plate contained only medium, while as a positive growth control, eight other wells contained medium plus cells. […] The plates were incubated overnight at 37° C., and the optical density (OD) determined at 620 nm after 20 to 24 hours incubation.

[5] = tested on: Candida albicans ATCC 10231; settings: for IC50 (μg/ml) against C. albicans: Tables 22-23; for IC50 against C. albicans: Tables 15-17, lower parts (unnatural amino acids)

Row | Compound | IC50 (μg/ml) against S. aureus [1] | % hemolysis at 100 μg/ml [2] | IC50 (μg/ml) against E. coli [3] | IC50 (μg/ml) against P. aeruginosa (P. aeruginosa ATCC 27853) | IC50 (μg/ml) against S. sanguis [4] | IC50 (μg/ml) against C. albicans [5] | IC50 against S. aureus [1] | HD50 (concentration necessary to lyse 50% of the cells) ([2]; Table 20, lower part) | IC50 against E. coli [3] | IC50 against S. sanguis [4] | IC50 against C. albicans [5] | HD50 (concentration necessary to lyse 50% of the cells) ([2]; Tables 18-21)
1 | CC(=O)N[C@@H](CCCNC(=N)N)C(=O)N[C@@H](CCCNC(=N)N)C(=O)N[C@@H](Cc1c[nH]c2ccccc12)C(=O)N[C@@H](Cc1c[nH]c2ccccc12)C(=O)N[C@@H](CS)C(=O)N[C@@H](CS)C(N)=O [Ac-RRWWCC-NH2] (Ac-RRWWCC-NH2) | 47 to 63 µg/mL | 9.5% | 54 to 68 µg/mL | 86 to 88 µg/mL | 92 to 94 µg/mL | 162 to 166 µg/mL |  |  |  |  |  | 
2 | CC(=O)N[C@H](CCCNC(=N)N)C(=O)N[C@H](CCCNC(=N)N)C(=O)N[C@H](Cc1c[nH]c2ccccc12)C(=O)N[C@H](Cc1c[nH]c2ccccc12)C(=O)N[C@H](CS)C(=O)N[C@H](CCCNC(=N)N)C(N)=O [Ac-rrwwcr-NH2] (Ac-[dR][dR][dW][dW][dC][dR]-NH2) | 9 to 13 µg/mL | 2.0% | 10 to 11 µg/mL | 28 to 29 µg/mL | 14 to 15 µg/mL | 68 to 78 µg/mL |  |  |  |  |  | 
3 | CC(=O)N[C@H](CCCNC(=N)N)C(=O)N[C@H](CCCNC(=N)N)C(=O)N[C@H](Cc1c[nH]c2ccccc12)C(=O)N[C@H](Cc1c[nH]c2ccccc12)C(=O)N[C@H](CS)C(=O)N[C@@H](C(N)=O)C(C)C [Ac-rrwwcv-NH2] (Ac-[dR][dR][dW][dW][dC][dV]-NH2) | 16 to 19 µg/mL | 10.0% | 9 to 10 µg/mL | 58 to 88 µg/mL | 7 to 8 µg/mL | 107 to 119 µg/mL |  |  |  |  |  | 
4 | (KFmoc)Wf(dOrn)-NH2 |  |  |  |  |  |  | 4 μg/m | 42 μg/m | 19 μg/m | 4 μg/m | 54 μg/m | 
5 | (KFmoc)ci(Hyp)-NH2 |  |  |  |  |  |  | 8 μg/m |  | 52 μg/m | 8 μg/m | 205 μg/m | 39 µg/mL
6 | (KFmoc)ci(KCBZ)-NH2 |  |  |  |  |  |  | 5 μg/m |  | 15 μg/m | 3 μg/m | 78 μg/m | 53 µg/mL
7 | (KFmoc)ci(dOrn)-NH2 |  |  |  |  |  |  | 4 μg/m |  | 20 μg/m | 2 μg/m | 121 μg/m | 77 µg/mL
8 | Ac-RRWWCA-NH2 [Ac-RRWWCA-NH2] | 35 to 40 µg/mL | 2.2% | 21 to 23 µg/mL | 97 to 98 µg/mL | 60 to 70 µg/mL | 193 to 210 µg/mL |  |  |  |  |  | 
9 | Ac-RRWWCD-NH2 [Ac-RRWWCD-NH2] | > 125 µg/mL | 0.3% | > 125 µg/mL | > 500 µg/mL | > 500 µg/mL | > 1000 µg/mL |  |  |  |  |  | 
10 | Ac-RRWWCE-NH2 [Ac-RRWWCE-NH2] | > 125 µg/mL | 0.0% | > 125 µg/mL | 149 µg/mL | > 500 µg/mL | 842 to 874 µg/mL |  |  |  |  |  | 
11 | Ac-RRWWCF-NH2 [Ac-RRWWCF-NH2] | 10 to 14 µg/mL | 3.3% | 20 to 21 µg/mL | 42 to 45 µg/mL | 14 to 22 µg/mL | 70 to 97 µg/mL |  |  |  |  |  | 
12 | Ac-RRWWCG-NH2 [Ac-RRWWCG-NH2] | 46 to 49 µg/mL | 1.9% | 22 to 23 µg/mL | 200 µg/mL | 47 to 66 µg/mL | 215 to 218 µg/mL |  |  |  |  |  | 
13 | Ac-RRWWCH-NH2 [Ac-RRWWCH-NH2] | 26 to 28 µg/mL | 0.0% | 20 to 28 µg/mL | 59 to 65 µg/mL | 53 to 62 µg/mL | 69 to 107 µg/mL |  |  |  |  |  | 
14 | Ac-RRWWCI-NH2 [Ac-RRWWCI-NH2] | 12 to 18 µg/mL | 8.3% | 29 to 33 µg/mL | 40 to 70 µg/mL | 17 to 18 µg/mL | 93 to 102 µg/mL |  |  |  |  |  | 
15 | Ac-RRWWCK-NH2 [Ac-RRWWCK-NH2] | 17 to 18 µg/mL | 0.5% | 17 to 21 µg/mL | 150 µg/mL | 38 to 42 µg/mL | 100 to 110 µg/mL |  |  |  |  |  | 
16 | Ac-RRWWCL-NH2 [Ac-RRWWCL-NH2] |  | 5.0% | 19 to 22 µg/mL | 46 to 54 µg/mL | 18 to 21 µg/mL | 65 to 95 µg/mL |  |  |  |  |  | 
17 | Ac-RRWWCM-NH2 [Ac-RRWWCM-NH2] | 13 to 20 µg/mL | 15% | 23 to 27 µg/mL | 93 to 103 µg/mL | 13 to 22 µg/mL | 96 to 112 µg/mL |  |  |  |  |  | 
18 | Ac-RRWWCN-NH2 [Ac-RRWWCN-NH2] | 98 to 125 µg/mL | 0.1% | 40 to 55 µg/mL | 120 µg/mL | 230 µg/mL | 222 to 227 µg/mL |  |  |  |  |  | 
19 | Ac-RRWWCP-NH2 [Ac-RRWWCP-NH2] | 49 to 50 µg/mL | 0.0% | 19 to 27 µg/mL | 200 µg/mL | 190 µg/mL | 217 to 222 µg/mL |  |  |  |  |  | 
20 | Ac-RRWWCQ-NH2 [Ac-RRWWCQ-NH2] | 52 to 98 µg/mL | 0.0% | 41 to 42 µg/mL | 60 to 65 µg/mL | 230 µg/mL | 223 to 230 µg/mL |  |  |  |  |  | 
21 | Ac-RRWWCR-NH2 [Ac-RRWWCR-NH2] | 11 to 12 µg/mL | 0.0% | 12 to 18 µg/mL | 87 to 130 µg/mL | 22 to 45 µg/mL | 100 to 101 µg/mL |  |  |  |  |  | 
22 | Ac-RRWWCS-NH2 [Ac-RRWWCS-NH2] | 41 to 44 µg/mL | 1.8% | 20 to 21 µg/mL | 290 µg/mL | 54 to 59 µg/mL | 211 to 213 µg/mL |  |  |  |  |  | 
23 | Ac-RRWWCT-NH2 [Ac-RRWWCT-NH2] | 38 to 47 µg/mL | 0.5% | 24 to 28 µg/mL | 180 µg/mL | 56 to 61 µg/mL | 216 to 223 µg/mL |  |  |  |  |  | 
24 | MagaininII-NH2 [reference compound] | 32 to 64 µg/mL |  | 72 to 98 µg/mL | 150 to 200 µg/mL | 143 to 235 µg/mL | 41 to 42 µg/mL |  |  |  |  |  | 
